Laboratory results taken from ChEMBL document CHEMBL5696442, “Discovery of type II inhibitors of TGFβ-activated kinase 1 (TAK1) and mitogen-activated protein kinase kinase kinase kinase 2 (MAP4K2)” (J Med Chem, 2015).
Calls of active or inactive are those of the source. The rule behind the calls is not given here.

Key:
[1] = biological target: DNA-PK/Ku70/Ku85 (Homo sapiens) (UniProt P78527+P12956+P13010); experiment: Inhibition of DNAPK ATP labeling site harbouring GHDEREHPFLVKGGEDLR in human Huh-7 cell lysate at 1 uM by KiNativ Profiling analysis relative to control; assay type: subcellular
[2] = biological target: Serine/threonine-protein kinase PLK1 (Homo sapiens) (UniProt P53350); experiment: Inhibition of PLK1 Lys1 labeling site harbouring CFEISDADTKEVFAGKIVPK in human Huh-7 cell lysate at 1 uM by KiNativ Profiling analysis relative to control; assay type: subcellular
[3] = biological target: Tyrosine-protein kinase CSK (Homo sapiens, UniProt P41240); experiment: Inhibition of CSK ACT labeling site harbouring EASSTQDTGKLPVKWTAPEALR in human Huh-7 cell lysate at 1 uM by KiNativ Profiling analysis relative to control; assay type: subcellular
[4] = biological target: Ribosomal protein S6 kinase beta-2 (Homo sapiens) (UniProt Q9UBS0); experiment: Inhibition of p70S6Kb Lys2 labeling site in human Huh-7 cell lysate at 1 uM by KiNativ Profiling analysis relative to control; assay type: subcellular
[5] = biological target: Serine/threonine-protein kinase 38-like (Homo sapiens) (UniProt Q9Y2H1); experiment: Inhibition of NDR2 Lys1 labeling site harbouring KDTGHIYAMKILR in human A-375 cells at 0.5 uM by KiNativ Profiling analysis relative to control; assay type: cell-based
[6] = biological target: Dual specificity mitogen-activated protein kinase kinase 1 (Homo sapiens) (UniProt Q02750); experiment: Inhibition of MEK1 (unknown origin) at 10 uM by Ambit Kinomescan binding assay
[7] = biological target: Phosphatidylinositol 4-phosphate 3-kinase C2 domain-containing subunit beta (Homo sapiens) (UniProt O00750); experiment: Inhibition of PIK3C2B ATP labeling site in human Huh-7 cells at 1 uM by KiNativ Profiling analysis relative to control; assay type: cell-based
[8] = biological target: T1, Mitogen-activated protein kinase kinase kinase 5 (Homo sapiens) (UniProt Q99683); experiment: Inhibition of MAP3K5 Lys2 labeling site in human A-375 cells at 0.05 uM by KiNativ Profiling analysis relative to control; assay type: cell-based
T1 sequence (whole entry): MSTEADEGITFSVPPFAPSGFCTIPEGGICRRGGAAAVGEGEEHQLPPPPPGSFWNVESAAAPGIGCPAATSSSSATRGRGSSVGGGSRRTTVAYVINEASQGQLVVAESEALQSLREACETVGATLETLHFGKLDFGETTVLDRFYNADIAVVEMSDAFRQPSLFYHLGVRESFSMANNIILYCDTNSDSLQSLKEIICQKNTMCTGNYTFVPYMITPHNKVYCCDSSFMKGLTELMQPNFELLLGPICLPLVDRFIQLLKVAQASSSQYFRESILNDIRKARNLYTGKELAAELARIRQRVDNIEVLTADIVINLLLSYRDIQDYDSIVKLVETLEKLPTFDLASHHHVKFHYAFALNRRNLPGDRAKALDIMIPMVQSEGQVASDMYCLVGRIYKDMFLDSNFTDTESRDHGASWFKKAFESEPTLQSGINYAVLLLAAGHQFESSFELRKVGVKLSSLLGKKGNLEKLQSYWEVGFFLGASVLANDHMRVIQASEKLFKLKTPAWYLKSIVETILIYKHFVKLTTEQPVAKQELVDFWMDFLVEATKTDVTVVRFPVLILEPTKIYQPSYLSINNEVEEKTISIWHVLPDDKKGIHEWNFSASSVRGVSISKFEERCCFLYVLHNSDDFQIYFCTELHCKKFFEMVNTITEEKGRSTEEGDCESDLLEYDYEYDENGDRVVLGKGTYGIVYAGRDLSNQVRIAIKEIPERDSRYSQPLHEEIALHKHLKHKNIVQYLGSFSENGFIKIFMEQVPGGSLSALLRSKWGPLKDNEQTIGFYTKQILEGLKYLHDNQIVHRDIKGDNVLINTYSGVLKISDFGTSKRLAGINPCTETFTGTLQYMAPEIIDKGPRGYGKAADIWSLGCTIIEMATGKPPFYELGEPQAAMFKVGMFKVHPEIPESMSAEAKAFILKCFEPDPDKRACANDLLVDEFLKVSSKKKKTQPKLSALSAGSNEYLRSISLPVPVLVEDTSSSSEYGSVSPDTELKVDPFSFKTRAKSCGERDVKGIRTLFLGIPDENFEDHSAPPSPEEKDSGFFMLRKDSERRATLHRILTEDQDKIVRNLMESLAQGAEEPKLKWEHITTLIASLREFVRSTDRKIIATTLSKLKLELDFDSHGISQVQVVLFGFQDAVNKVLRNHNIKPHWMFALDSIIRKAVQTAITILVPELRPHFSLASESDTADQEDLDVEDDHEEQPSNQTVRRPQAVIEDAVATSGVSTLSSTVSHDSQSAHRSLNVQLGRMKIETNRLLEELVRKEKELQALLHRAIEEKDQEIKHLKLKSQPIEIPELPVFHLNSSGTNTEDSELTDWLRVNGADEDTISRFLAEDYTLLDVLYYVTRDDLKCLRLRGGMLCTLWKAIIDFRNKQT

[9] = biological target: Platelet-derived growth factor receptor alpha (Homo sapiens) (UniProt P16234); experiment: Inhibition of PDGFRA (unknown origin) at 10 uM by Ambit Kinomescan binding assay relative to control
[10] = biological target: Cyclin-dependent kinase 5 (Homo sapiens) (UniProt Q00535); experiment: Inhibition of CDK5 Lys1 labeling site in human A-375 cells at 0.5 uM by KiNativ Profiling analysis relative to control; assay type: cell-based
[11] = biological target: Non-receptor tyrosine-protein kinase TYK2 (Homo sapiens) (UniProt P29597); experiment: Inhibition of TYK2 JH2 pseudokinase domain (unknown origin) at 1 uM by Ambit Kinomescan binding assay relative to control
[12] = biological target: Proto-oncogene tyrosine-protein kinase Src (Homo sapiens, UniProt P12931); experiment: Inhibition of SRC (unknown origin) at 1 uM by Ambit Kinomescan binding assay relative to control
[13] = biological target: Cytoplasmic tyrosine-protein kinase BMX (Homo sapiens) (UniProt P51813); experiment: Inhibition of BMX (unknown origin) at 1 uM by Ambit Kinomescan binding assay relative to control; values are per cent of control

Sequence of Platelet-derived growth factor receptor alpha (Homo sapiens) (P16234 whole entry): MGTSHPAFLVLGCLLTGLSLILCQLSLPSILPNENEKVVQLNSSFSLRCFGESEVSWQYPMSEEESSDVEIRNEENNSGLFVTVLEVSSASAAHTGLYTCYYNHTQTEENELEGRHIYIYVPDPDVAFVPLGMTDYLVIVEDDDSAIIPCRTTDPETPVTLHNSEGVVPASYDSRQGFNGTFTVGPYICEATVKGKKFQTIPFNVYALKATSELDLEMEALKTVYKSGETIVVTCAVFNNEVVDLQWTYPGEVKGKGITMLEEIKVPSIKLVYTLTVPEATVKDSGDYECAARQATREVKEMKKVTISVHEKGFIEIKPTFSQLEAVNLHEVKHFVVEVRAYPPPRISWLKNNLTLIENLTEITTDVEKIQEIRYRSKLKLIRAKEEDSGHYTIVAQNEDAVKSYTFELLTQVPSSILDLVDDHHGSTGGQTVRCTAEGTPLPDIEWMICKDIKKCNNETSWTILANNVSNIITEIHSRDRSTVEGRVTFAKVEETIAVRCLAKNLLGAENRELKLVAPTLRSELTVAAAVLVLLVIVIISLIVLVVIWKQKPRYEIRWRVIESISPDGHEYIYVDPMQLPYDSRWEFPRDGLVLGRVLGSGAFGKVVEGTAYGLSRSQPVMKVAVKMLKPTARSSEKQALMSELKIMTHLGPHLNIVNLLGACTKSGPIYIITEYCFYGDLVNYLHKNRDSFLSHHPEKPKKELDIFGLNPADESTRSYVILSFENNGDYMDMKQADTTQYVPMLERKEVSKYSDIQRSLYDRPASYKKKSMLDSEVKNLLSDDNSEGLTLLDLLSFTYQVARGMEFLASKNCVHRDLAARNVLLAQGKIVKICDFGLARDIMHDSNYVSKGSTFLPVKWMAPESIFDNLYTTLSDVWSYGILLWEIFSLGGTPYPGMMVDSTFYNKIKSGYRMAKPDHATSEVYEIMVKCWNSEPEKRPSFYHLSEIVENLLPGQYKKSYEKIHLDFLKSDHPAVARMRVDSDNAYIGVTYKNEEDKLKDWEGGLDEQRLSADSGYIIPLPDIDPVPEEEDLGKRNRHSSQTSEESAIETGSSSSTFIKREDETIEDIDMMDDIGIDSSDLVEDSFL
Sequence of Dual specificity mitogen-activated protein kinase kinase 1 (Homo sapiens) (Q02750 whole entry, the tested form may be a part): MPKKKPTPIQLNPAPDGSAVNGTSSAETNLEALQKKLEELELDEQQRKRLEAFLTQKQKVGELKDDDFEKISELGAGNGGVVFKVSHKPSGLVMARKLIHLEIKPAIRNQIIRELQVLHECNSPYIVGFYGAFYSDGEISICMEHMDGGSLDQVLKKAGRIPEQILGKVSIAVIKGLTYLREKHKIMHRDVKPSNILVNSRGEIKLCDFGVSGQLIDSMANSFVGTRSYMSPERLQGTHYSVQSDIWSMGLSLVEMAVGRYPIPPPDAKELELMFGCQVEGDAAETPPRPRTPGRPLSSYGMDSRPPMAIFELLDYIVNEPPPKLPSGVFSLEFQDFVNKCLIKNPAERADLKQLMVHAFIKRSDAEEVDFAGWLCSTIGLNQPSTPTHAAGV
Sequence of Serine/threonine-protein kinase PLK1 (Homo sapiens) (P53350 whole entry): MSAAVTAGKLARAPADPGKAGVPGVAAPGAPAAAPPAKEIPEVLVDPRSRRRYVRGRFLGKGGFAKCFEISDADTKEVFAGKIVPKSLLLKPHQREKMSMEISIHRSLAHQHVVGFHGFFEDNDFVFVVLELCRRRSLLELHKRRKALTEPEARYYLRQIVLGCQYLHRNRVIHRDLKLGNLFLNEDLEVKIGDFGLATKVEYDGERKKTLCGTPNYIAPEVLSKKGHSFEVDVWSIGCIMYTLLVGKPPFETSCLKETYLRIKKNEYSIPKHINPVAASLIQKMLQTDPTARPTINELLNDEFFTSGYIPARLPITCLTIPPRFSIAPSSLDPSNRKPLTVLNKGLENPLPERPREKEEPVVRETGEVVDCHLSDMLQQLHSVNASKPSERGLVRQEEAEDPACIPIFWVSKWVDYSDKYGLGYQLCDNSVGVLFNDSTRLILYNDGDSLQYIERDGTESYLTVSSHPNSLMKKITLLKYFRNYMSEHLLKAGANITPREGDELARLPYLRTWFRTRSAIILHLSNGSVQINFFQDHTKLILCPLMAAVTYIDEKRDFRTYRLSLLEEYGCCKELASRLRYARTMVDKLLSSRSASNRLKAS
Sequence of Phosphatidylinositol 4-phosphate 3-kinase C2 domain-containing subunit beta (Homo sapiens) (O00750 whole entry, the tested form may be a part): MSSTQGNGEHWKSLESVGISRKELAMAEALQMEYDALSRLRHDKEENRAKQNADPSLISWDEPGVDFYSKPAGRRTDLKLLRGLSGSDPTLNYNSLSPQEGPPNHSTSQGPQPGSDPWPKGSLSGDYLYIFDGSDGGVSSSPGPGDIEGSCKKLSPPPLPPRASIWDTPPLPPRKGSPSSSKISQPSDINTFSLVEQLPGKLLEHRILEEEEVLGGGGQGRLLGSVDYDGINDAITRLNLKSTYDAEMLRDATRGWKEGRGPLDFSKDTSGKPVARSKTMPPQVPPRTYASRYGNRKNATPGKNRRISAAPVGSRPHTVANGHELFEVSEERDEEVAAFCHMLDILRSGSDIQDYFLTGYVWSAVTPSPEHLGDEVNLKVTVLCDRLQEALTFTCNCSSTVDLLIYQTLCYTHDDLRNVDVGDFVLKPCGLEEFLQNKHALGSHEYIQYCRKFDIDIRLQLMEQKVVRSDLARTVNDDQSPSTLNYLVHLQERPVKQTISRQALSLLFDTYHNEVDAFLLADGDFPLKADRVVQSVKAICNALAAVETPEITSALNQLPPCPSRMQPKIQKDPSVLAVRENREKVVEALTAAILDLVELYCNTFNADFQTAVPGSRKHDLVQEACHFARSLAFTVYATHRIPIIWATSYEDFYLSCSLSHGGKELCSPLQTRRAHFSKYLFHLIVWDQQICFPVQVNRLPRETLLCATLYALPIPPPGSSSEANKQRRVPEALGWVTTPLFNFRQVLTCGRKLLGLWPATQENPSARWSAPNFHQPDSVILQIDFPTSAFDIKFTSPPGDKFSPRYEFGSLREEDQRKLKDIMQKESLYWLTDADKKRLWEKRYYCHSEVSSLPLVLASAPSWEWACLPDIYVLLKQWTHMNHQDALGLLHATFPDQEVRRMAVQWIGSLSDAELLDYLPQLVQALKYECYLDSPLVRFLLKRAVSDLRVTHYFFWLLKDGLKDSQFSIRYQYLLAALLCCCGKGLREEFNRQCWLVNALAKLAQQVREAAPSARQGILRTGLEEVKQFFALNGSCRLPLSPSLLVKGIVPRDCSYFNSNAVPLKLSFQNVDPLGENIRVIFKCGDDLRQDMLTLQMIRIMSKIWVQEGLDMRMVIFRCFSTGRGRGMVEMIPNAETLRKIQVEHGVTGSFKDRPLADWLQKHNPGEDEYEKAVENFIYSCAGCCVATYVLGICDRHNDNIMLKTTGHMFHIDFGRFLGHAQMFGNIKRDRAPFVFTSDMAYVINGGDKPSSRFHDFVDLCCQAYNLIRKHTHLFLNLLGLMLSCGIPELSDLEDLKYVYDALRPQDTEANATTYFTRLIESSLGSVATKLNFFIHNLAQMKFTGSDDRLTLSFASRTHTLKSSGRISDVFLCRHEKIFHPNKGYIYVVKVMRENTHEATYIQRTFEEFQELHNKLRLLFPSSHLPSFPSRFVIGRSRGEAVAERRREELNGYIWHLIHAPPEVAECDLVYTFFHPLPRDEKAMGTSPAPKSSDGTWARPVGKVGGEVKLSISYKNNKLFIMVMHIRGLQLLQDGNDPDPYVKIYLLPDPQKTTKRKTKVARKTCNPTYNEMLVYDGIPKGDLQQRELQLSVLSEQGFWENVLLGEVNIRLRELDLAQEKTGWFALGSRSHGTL
Sequence of Non-receptor tyrosine-protein kinase TYK2 (Homo sapiens) (P29597 whole entry, the tested form may be a part): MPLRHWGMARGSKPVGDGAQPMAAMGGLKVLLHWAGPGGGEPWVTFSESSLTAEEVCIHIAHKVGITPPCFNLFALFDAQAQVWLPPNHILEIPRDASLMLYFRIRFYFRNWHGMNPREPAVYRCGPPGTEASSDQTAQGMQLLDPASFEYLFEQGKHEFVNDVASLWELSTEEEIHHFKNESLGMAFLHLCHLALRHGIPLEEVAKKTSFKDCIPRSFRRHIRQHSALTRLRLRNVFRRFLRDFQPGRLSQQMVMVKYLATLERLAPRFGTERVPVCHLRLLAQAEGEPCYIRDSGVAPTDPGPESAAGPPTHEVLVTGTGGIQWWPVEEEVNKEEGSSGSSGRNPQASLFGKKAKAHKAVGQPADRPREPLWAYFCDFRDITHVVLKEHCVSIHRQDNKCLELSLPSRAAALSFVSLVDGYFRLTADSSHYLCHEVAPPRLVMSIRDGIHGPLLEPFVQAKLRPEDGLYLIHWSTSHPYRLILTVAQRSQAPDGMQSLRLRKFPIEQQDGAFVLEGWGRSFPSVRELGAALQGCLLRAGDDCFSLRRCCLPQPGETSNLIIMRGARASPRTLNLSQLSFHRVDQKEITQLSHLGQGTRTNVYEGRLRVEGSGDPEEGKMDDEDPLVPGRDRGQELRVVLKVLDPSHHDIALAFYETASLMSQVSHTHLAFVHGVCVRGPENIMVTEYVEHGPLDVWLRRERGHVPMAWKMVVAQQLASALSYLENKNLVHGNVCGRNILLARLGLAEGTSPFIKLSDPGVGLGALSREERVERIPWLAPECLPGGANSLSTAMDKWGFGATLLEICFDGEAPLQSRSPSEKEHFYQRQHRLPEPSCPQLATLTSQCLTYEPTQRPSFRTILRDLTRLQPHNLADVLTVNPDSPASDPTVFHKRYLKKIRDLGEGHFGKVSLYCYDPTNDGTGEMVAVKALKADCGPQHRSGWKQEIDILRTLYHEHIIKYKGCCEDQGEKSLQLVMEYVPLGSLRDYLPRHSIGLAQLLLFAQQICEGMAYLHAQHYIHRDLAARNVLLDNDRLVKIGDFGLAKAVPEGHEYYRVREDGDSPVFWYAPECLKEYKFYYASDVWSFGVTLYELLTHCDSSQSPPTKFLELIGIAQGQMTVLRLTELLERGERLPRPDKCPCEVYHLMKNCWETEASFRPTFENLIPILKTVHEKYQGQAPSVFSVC

Compound CNc1cc(Oc2cc(C(=O)Nc3cc(N4CCN(C)CC4)cc(C(F)(F)F)c3)ccc2C)ncn1 has an inhibition [1] of 7.9%, an inhibition [2] of 1% and an inhibition [3] of 0.4%. It also gave an inhibition [4] of -8.4%.

For CCN1CCN(Cc2ccc(NC(=O)c3ccc(C)c(Oc4ccnc5[nH]ccc45)c3)cc2C(F)(F)F)CC1, the inhibition [5] was 31.6%, the inhibition [6] was “inactive” and the inhibition [7] was -9.4%. It also gave an inhibition [8] of -6.6% and an inhibition [9] of 0.6%.

In the case of CCN1CCN(Cc2ccc(NC(=O)c3ccc(C)c(/C=C/c4cnc5[nH]ccc5c4OC)c3)cc2C(F)(F)F)CC1, the inhibition [10] was -4.1%, the inhibition [11] was 47% and the inhibition [12] was 2.8%. It also gave a residual activity [13] of 1.6%.
